Reference: patent US11274332B2, “Methods of administering 3,4-diaminopyridine” (SERB SA, priority 2011, dated 2022)
Read-outs that look alike come from different tables or passages of the source.

Assay: Example 18 Part 2: multiple dose PK (20 mg QID) of 3,4-DAP and 3-N-acetyl metabolite in slow and fast acetylators
Format: in vivo, human
Conditions: for AUC(0-t) / Cmax / Tmax / Vd/F / half-life: both sexes, human, plasma, oral, 20 mg; for Cmax: read-out: Cmax; for Tmax: read-out: Tmax; for Vd/F: read-out: Vz/F; for half-life: read-out: t1/2 (converted)
Description: The following method was used to analyze concentrations of 3,4-diaminopyridine and N-(4-aminopyridin-3-yl)acetamide in plasma and urine samples for the experiments in Example 18. In the LC/MS/MS method, the human plasma and urine samples were extracted using acetonitrile containing 0.1% formic acid. Samples were analyzed by using HPLC with positive ion electrospray MS/MS detection. The column was an Atlantis HILIC Silica column (3 μm, 3×50 mm) at a temperature of 40° C. Mobile phase A was water containing ammonium formate (20 mM) and 0.1% formic acid. Mobile phase B was acetonitrile/isopropanol (90/10; v/v) containing 0.1% formic acid. The flow rate was 0.90 mL/minute. The gradient conditions for human plasma and urine samples were as follows:
The LC/MS/MS method was validated to quantify 3,4-DAP in human plasma in the linear calibration range of 0.500 to 500 ng/mL and from 1.00 to 1000 ng/mL for the 3-N-acetyl metabolite.
The primary objective of the study was to assess the safety and tolerability of 3,4-DAP phosphate after single and multiple doses. The secondary objectives of the study were • Part 1 only: To determine the dose-related PK profile of amifampridine and of 3-N-acetyl amifampridine after single, escalating doses of 3,4-DAP phosphate • Part 2 only: To assess the steady-state plasma PK and accumulation of amifampridine and of 3-N-acetyl amifampridine over multiple days of dosing with 3,4-DAP phosphate An exploratory objective was to examine the overall activity of the N-acetyl transferase enzymes on the metabolism of amifampridine by assessing the PK of amifampridine and 3-N-acetyl amifampridine with phenotypic acetylation activity and genotyping determination of NAT2 gene polymorphisms. Study Design and Plan
This open-label study in healthy subjects (male and female) was conducted in 2 parts. A total of 26 healthy male and female subjects, 12 in Part 1 (at least 5 of each sex), 4 in Part 2 Group 1, and 10 in Part 2 Group 2 (at least 4 of each sex) were enrolled into the study. The same subjects were not enrolled to participate in both parts. Subjects in Part 2 were dosed only after all subjects of Part 1 completed dosing and at least 24-hours of follow-up safety evaluation after the last dose were completed.
All subjects were characterized for their metabolic acetylation phenotype and NAT2 genotype in order to divide subjects into two groups of acetylators. Volunteers were genetically typed for highly variant alleles of the N-acetyl transferase 2 enzyme (NAT2) domain on chromosome 8 (according to Example 16) and were phenotyped for acetylation rates with a caffeine challenge test (according to Example 15a). Approximately equal numbers of slow and fast acetylators (as defined by a caffeine challenge test in Example 15a) were enrolled in each group. In Part 2, very slow acetylators with NAT2 activity (ratio 1, Example 15a) below 0.06 were excluded from participation in the study. In each part of the study, subjects were assessed for PK, safety, and tolerability and all doses were administered within 30 min of ingestion of a meal or a snack.
Part 2, Group 1: Four sentinel subjects were selected after determining their acetylator status. Two were fast acetylators and two were slow acetylators. All four were dosed on Day 1 with 4 oral doses of 20 mg of 34-DAP phosphate (given at 4-hour dosing intervals). On Days […] and 2, safety and tolerability data was collected. Subjects left the clinic on Day 2. The safety and tolerability data collected for these 4 sentinel subjects were reviewed. The safety and tolerability results of Days 1 and 2 for these subjects were acceptable and thus Part 2 Group 2 was commenced. Minimally acceptable safety was defined as the absence of clinical seizure activity. Subjects in Group 1 returned to the clinic for their follow-up assessments 2-4 days following their last dose.
Each subject was given a final morning dose of 20 mg 3,4-DAP phosphate on Day 4. […]

[1] = Day 1, fast acetylators, Dose 1 interval, 20 mg QID, arith. mean
[2] = Day 1, fast acetylators, Dose 2 interval, 20 mg QID, arith. mean
[3] = Day 1, fast acetylators, Dose 3 interval, 20 mg QID, arith. mean
[4] = Day 1, fast acetylators, Dose 4 interval, 20 mg QID, arith. mean
[5] = Day 1, slow acetylators, Dose 1 interval, 20 mg QID, arith. mean
[6] = Day 1, slow acetylators, Dose 2 interval, 20 mg QID, arith. mean
[7] = Day 1, slow acetylators, Dose 3 interval, 20 mg QID, arith. mean
[8] = Day 1, slow acetylators, Dose 4 interval, 20 mg QID, arith. mean
[9] = Day 3, fast acetylators, Dose 1 interval, 20 mg QID, arith. mean
[10] = Day 3, fast acetylators, Dose 2 interval, 20 mg QID, arith. mean
[11] = Day 3, fast acetylators, Dose 3 interval, 20 mg QID, arith. mean
[12] = Day 3, fast acetylators, Dose 4 interval, 20 mg QID, arith. mean
[13] = Day 3, slow acetylators, Dose 1 interval, 20 mg QID, arith. mean
[14] = Day 3, slow acetylators, Dose 2 interval, 20 mg QID, arith. mean
[15] = Day 3, slow acetylators, Dose 3 interval, 20 mg QID, arith. mean
[16] = Day 3, slow acetylators, Dose 4 interval, 20 mg QID, arith. mean
[17] = metabolite, Day 4, 20 mg single dose, fast acetylators
[18] = metabolite, Day 4, 20 mg single dose, slow acetylators

- CL/F [1]: 16.2 L/h
- CL/F [2]: 7.78 L/h
- CL/F [3]: 8.90 L/h
- CL/F [4]: 7.62 L/h
- CL/F [5]: 28.8 L/h
- CL/F [6]: 20.2 L/h
- CL/F [7]: 13.5 L/h
- CL/F [8]: 10.4 L/h
- CL/F [9]: 11.5 L/h
- CL/F [10]: 7.56 L/h
- CL/F [11]: 7.72 L/h
- CL/F [12]: 7.03 L/h
- CL/F [13]: 19.0 L/h
- CL/F [14]: 14.5 L/h
- CL/F [15]: 12.7 L/h
- CL/F [16]: 9.65 L/h
- AUC(0-t) (Day 1, fast acetylators, Dose 1-4, 20 mg QID, arith. mean, read-out: AUC0-24): 5740 ng·h/mL
- AUC(0-t) (Day 1, fast acetylators, Dose 1 interval, 20 mg QID, arith. mean, read-out: AUC0-4): 773 ng·h/mL
- Cmax [1]: 333 ng/mL
- Tmax [1]: 1.43 h
- Vd/F [1]: 55.2 L
- half-life [1]: 2.35 h
- AUC(0-t) (Day 1, fast acetylators, Dose 2 interval, 20 mg QID, arith. mean, read-out: AUC0-4): 1160 ng·h/mL
- Cmax [2]: 396 ng/mL
- Tmax [2]: 1.5 h
- Vd/F [2]: 32.9 L
- half-life [2]: 2.93 h
- AUC(0-t) (Day 1, fast acetylators, Dose 3 interval, 20 mg QID, arith. mean, read-out: AUC0-4): 1280 ng·h/mL
- Cmax [3]: 426 ng/mL
- Tmax [3]: 0.964 h
- Vd/F [3]: 40.3 L
- half-life [3]: 3.28 h
- AUC(0-t) (Day 1, fast acetylators, Dose 4 interval, 20 mg QID, arith. mean, read-out: AUC0-4): 1340 ng·h/mL
- Cmax [4]: 433 ng/mL
- Tmax [4]: 1.14 h
- Vd/F [4]: 40 L
- half-life [4]: 3.93 h
- AUC(0-t) (Day 1, slow acetylators, Dose 1-4, 20 mg QID, arith. mean, read-out: AUC0-24): 3580 ng·h/mL
- AUC(0-t) (Day 1, slow acetylators, Dose 1 interval, 20 mg QID, arith. mean, read-out: AUC0-4): 383 ng·h/mL
- Cmax [5]: 150 ng/mL
- Tmax [5]: 1.68 h
- Vd/F [5]: 120 L
- half-life [5]: 2.95 h
- AUC(0-t) (Day 1, slow acetylators, Dose 2 interval, 20 mg QID, arith. mean, read-out: AUC0-4): 627 ng·h/mL
- Cmax [6]: 204 ng/mL
- Tmax [6]: 1.46 h
- Vd/F [6]: 101 L
- half-life [6]: 3.5 h
- AUC(0-t) (Day 1, slow acetylators, Dose 3 interval, 20 mg QID, arith. mean, read-out: AUC0-4): 759 ng·h/mL
- Cmax [7]: 240 ng/mL
- Tmax [7]: 1.25 h
- Vd/F [7]: 71.5 L
- half-life [7]: 4 h
- AUC(0-t) (Day 1, slow acetylators, Dose 4 interval, 20 mg QID, arith. mean, read-out: AUC0-4): 769 ng·h/mL
- Cmax [8]: 235 ng/mL
- Tmax [8]: 1.71 h
- Vd/F [8]: 70.6 L
- half-life [8]: 4.74 h
- AUC(0-t) (Day 3, fast acetylators, Dose 1-4, 20 mg QID, arith. mean, read-out: AUC0-24): 6570 ng·h/mL
- AUC(0-t) (Day 3, fast acetylators, Dose 1 interval, 20 mg QID, arith. mean, read-out: AUC0-4): 1020 ng·h/mL
- Cmax [9]: 374 ng/mL
- Tmax [9]: 1.35 h
- Vd/F [9]: 44.5 L
- half-life [9]: 2.77 h
- AUC(0-t) (Day 3, fast acetylators, Dose 2 interval, 20 mg QID, arith. mean, read-out: AUC0-4): 1320 ng·h/mL
- Cmax [10]: 448 ng/mL
- Tmax [10]: 1.3 h
- Vd/F [10]: 36.6 L
- half-life [10]: 3.6 h
- AUC(0-t) (Day 3, fast acetylators, Dose 3 interval, 20 mg QID, arith. mean, read-out: AUC0-4): 1410 ng·h/mL
- Cmax [11]: 490 ng/mL
- Tmax [11]: 0.9 h
- Vd/F [11]: 39.2 L
- half-life [11]: 3.74 h
- AUC(0-t) (Day 3, fast acetylators, Dose 4 interval, 20 mg QID, arith. mean, read-out: AUC0-4): 1460 ng·h/mL
- Cmax [12]: 509 ng/mL
- Tmax [12]: 1.1 h
- Vd/F [12]: 42 L
- half-life [12]: 4.17 h
- AUC(0-t) (Day 3, slow acetylators, Dose 1-4, 20 mg QID, arith. mean, read-out: AUC0-24): 3650 ng·h/mL
- AUC(0-t) (Day 3, slow acetylators, Dose 1 interval, 20 mg QID, arith. mean, read-out: AUC0-4): 523 ng·h/mL
- Cmax [13]: 206 ng/mL
- Tmax [13]: 1.75 h
- Vd/F [13]: 95 L
- half-life [13]: 3.47 h
- AUC(0-t) (Day 3, slow acetylators, Dose 2 interval, 20 mg QID, arith. mean, read-out: AUC0-4): 684 ng·h/mL
- Cmax [14]: 222 ng/mL
- Tmax [14]: 1.5 h
- Vd/F [14]: 81.5 L
- half-life [14]: 3.89 h
- AUC(0-t) (Day 3, slow acetylators, Dose 3 interval, 20 mg QID, arith. mean, read-out: AUC0-4): 802 ng·h/mL
- Cmax [15]: 249 ng/mL
- Tmax [15]: 1.2 h
- Vd/F [15]: 68.1 L
- half-life [15]: 3.75 h
- AUC(0-t) (Day 3, slow acetylators, Dose 4 interval, 20 mg QID, arith. mean, read-out: AUC0-4): 814 ng·h/mL
- Cmax [16]: 258 ng/mL
- Tmax [16]: 0.9 h
- Vd/F [16]: 78.3 L
- half-life [16]: 5.7 h
- AUC(0-t) (metabolite, Day 4, 20 mg single dose, fast acetylators, read-out: Mean AUC0-4): 1030 ng·h/mL
- AUC(0-t) (metabolite, Day 4, 20 mg single dose, fast acetylators, read-out: Mean AUC0-24): 2120 ng·h/mL
- AUC(0-t) (metabolite, Day 4, 20 mg single dose, slow acetylators, read-out: Mean AUC0-4): 513 ng·h/mL
- AUC(0-t) (metabolite, Day 4, 20 mg single dose, slow acetylators, read-out: Mean AUC0-24): 1230 ng·h/mL
- Mean CL/F [17]: 69.4 L/h
- Mean t1/2 [17]: 1.40 h
- Mean CL/F [18]: 116 L/h
- Mean t1/2 [18]: 1.55 h
SMILES: CC(=O)Nc1cnccc1N [3-N-acetyl amifampridine, N-(4-aminopyridin-3-yl)acetamide]
